In patent US20230226198A1, “Artemisinin Derivatives” (DA ZEN THERANOSTICS, INC., priority 2019, published 2023):

Key:
[1] = system: human prostate tumors (22Rv1 cells); assay: Human prostate tumor model, subcutaneous 22Rv1 tumors in nude mice; assay type: in vivo, athymic nude mice
Experimental: Example 4 A/B: Human cancer cells are subcutaneously (s.c.) implanted (1×10^6) into 4- to 6-week-old athymic nude mice (National Cancer Institute). When tumor sizes in the mice reach between 1 and 6 mm in diameter as assessed by in vivo bioluminescence imaging or by palpation, mice are injected once or multiple times i.p. with the drug, e.g. DZ3a, DHA or o THAD. For mice bearing 22Rv1 tumors, DZ3a (2, 4, 8 and 16 mg/kg) or DHA (e.g. 4.7 mg/kg) is injected twice a week for 5.5 weeks. Whole body optical imaging is taken at 24 hours or as indicated using a Kodak Imaging Station 4000 MM equipped with fluorescent filter sets (excitation/emission, 800:850 nm), with a field of view of 120 mm in diameter, a frequency rate for NIR excitation light of 2 mW/cm^2, and the following camera settings; maximal gain, 2-2 binning, 1,024×1,024 pixel resolution, exposure time of 5 seconds. Live mice are alternatively/additionally imaged by an Olympus OV100 Whole Mouse Imaging System (excitation, 762 nm; emission, 800 nm; Olympus Corp.), containing a MT-20 light source (Olympus Biosystems) and DP70 CCD camera (Olympus). Before imaging, mice are anesthetized with isoflurane (2.5 units), and maintained in an anesthetized state during imaging. Alternatively, a THAD may be compared to DZ3a. […]

C4-2B MDVR cells = assay: Annexin V / PI flow cytometry, cell death and apoptosis; assay type: cell-based, human; conditions: for induced cell death after pretreatment with OATP inhibitor: 2 h pretreatment with OATP inhibitor telmisartan (TMS); for induced cell death after pretreatment with Midivi or Nec-1: 2 h pretreatment with mitochondrial fission inhibitor (Midivi) or necroptosis inhibitor (Nec-1); for cell death / apoptosis (Annexin V / PI): C4-2B MDVR, e.g. 5 uM, 6 h
Experimental: Example 5E: Cancer cells (here C4-2B MDVR) are pretreated with OATP inhibitor telmisartan (TMS), mevalonate (MVA), Midivi (Drp-1 inhibitor), and necrostatin-1 (Nec-1) for 2 h before treatment with vehicle, DHA, DZ-003 and/or a THAD (e.g. 5 uM each) for 6 h. Cells are subjected to annexin v staining (10 ul/10^6 cells) in the dark at RT for 15-20 min followed by PI staining at 1 mg/ml to determine the apoptosis of the cells based on the PI (red) and Annexin V (green) fluorescence by flow cytometry analysis using SONY SA3800 Spectral Analyzer. […] The vehicle and DHA treated cells remain viable (lower-left quadrant; blue population indicates live cells).

[2] = system: Abi-R cells (Abiraterone acetate resistant C4-2B cells); assay: MTT cell viability / IC50 assay, Abi-R; assay type: cell-based; conditions: Homo sapiens, 48 h
Experimental: Cell culture: In the following examples, unless otherwise specified, all cell lines are purchased from American Type Culture Collection and cultured in American Type Culture Collection (ATCC)-recommended media, with fetal bovine serum (FBS) to a final concentration of 10% and 1× penicillin/streptomycin at 37° C. with 5% CO2 in a cell culture incubator, unless otherwise specified. Unless otherwise specified, culture is 2D. Where culture is 3D, low attachment plates are used, with the same media. C4-2B (ATCC® CRL-3315™, human prostate cancer cells of epithelial morphology) parental cell line and drug-resistant cells derived therefrom) are cultured in RPMI-1640 with 10% FBS. MDVR cells (an Enzalutamide-resistant variety of C4-2B prostate cancer cells formed as described below) are cultured as indicated for the parental C4-2B cells. Caki-1 cells (human clear cell renal cell carcinoma cells) are cultured in ATCC-formulated McCoy's 5a Medium Modified (ATCC Catalog No. 30-2007) with 10% FBS. […]
Each of the cell lines is treated either with a THAD (e.g. DZ-DHA-ether, MI-148-bis-DHA), or for comparison, with the DHA mono-ester “DZ-DHA”; alternatively/additionally, DZ1 and/or unconjugated DHA may serve as comparants. […] The absorbance density of the supernatant is read on a 96-well microplate reader at wavelength 595 nm. […]

| SMILES | inhibition of tumor volume increase ([1]; DZ-DHA-monoester 2 to 16 mg/kg, DHA 4.7 mg/kg, i.p. twice a week for 5.5 weeks, versus vehicle) | tumor inhibition, lowest dose versus higher doses ([1]; about 2 mg/kg versus higher doses up to 16 mg/kg) | induced cell death after pretreatment with OATP inhibitor (C4-2B MDVR cells) | induced cell death after pretreatment with OATP inhibitor (C4-2B MDVR cells; listed as DZ-003) | induced cell death after pretreatment with mevalonate (MVA) (C4-2B MDVR cells; 2 h pretreatment with mevalonate (MVA)) | induced cell death after pretreatment with Midivi or Nec-1 (C4-2B MDVR cells) | induced cell death after pretreatment with Midivi or Nec-1 (C4-2B MDVR cells; listed as DZ-003) | cell death / apoptosis (Annexin V / PI) (C4-2B MDVR cells) | cell death / apoptosis (Annexin V / PI) (C4-2B MDVR cells; listed as DZ-003) | IC50 [2] [µM] |
| --- | --- | --- | --- | --- | --- | --- | --- | --- | --- | --- |
| C[C@@H]1CC[C@H]2[C@@H](C)C(OC(=O)CCCCCN3/C(=C/C=C4\CCCC(/C=C/C5=[N+](CCCCS(=O)(=O)[O-])c6ccccc6C5(C)C)=C4Cl)C(C)(C)c4ccccc43)O[C@@H]3OC4(C)CC[C@@H]1[C@]32OO4 (stereo in doubt) [DZ3a] | similarly inhibit increase in tumor volume compared to the neg. control | shows better tumor inhibition than other higher doses | partially inhibited by an OATP inhibitor (TMA) | can be partially inhibited by an OATP inhibitor (TMS) | not so much by mevalonic acid (MVA) | blocked by mitochondrial fission (Midivi) and necroptosis inhibitors (Nec-1) | can be blocked by mitochondrial fission (Midivi) and necroptosis inhibitor (Nec-1) | induces cell death | induced cell death | 17.1 |
| C[C@H]1[C@@H](O)O[C@@H]2O[C@@]3(C)CC[C@H]4[C@H](C)CC[C@@H]1[C@@]24OO3 [DHA, dihydroartemisinin] | – | – | – | – | – | – | – | – | – | 669 |
